Assay results: publication PMC6470699, “BcXyl, a β-xylosidase Isolated from Brunfelsia Calycina Flowers with Anthocyanin-β-glycosidase Activity” (International Journal of Molecular Sciences, 2019)

Target: T1, BcXyl (β-xylosidase, anthocyanin-β-glycosidase) (Brunfelsia pauciflora, UniProt A0A6G5NV63)
T1 construct: gene xyl; native purification from stage 2 petals (ammonium sulfate, DEAE, CM); about 72 kDa on SDS-PAGE; cDNA codes for 786 aa with predicted signal peptide 1-27; MS/MS peptides AVSNNFATLMR, LPMTWYPQSYADK, VTQQDLDDTFNPPFK, HYTAYDIDDWK, YEWWSEALHGISYTGPGVK
T1 sequence (A0A6G5NV63 28-785 limits assumed): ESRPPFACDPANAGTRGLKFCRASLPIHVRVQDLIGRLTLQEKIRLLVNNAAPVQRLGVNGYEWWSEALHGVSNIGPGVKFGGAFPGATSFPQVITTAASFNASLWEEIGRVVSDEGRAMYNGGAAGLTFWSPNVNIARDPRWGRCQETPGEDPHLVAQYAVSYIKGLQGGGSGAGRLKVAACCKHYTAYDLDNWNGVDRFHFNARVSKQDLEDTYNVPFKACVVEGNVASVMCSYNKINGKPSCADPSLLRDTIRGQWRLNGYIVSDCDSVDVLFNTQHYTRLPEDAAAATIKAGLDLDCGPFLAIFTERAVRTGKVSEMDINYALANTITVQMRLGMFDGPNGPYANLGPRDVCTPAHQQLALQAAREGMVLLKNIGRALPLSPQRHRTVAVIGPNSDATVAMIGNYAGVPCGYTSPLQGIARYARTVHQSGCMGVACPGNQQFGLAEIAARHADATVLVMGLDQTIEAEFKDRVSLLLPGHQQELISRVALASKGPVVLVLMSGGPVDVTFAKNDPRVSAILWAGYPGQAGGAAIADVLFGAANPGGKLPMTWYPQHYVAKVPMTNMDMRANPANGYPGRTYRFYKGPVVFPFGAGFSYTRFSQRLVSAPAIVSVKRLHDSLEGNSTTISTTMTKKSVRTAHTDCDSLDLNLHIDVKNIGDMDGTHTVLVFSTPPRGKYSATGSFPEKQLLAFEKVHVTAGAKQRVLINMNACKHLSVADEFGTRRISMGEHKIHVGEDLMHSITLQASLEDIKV
Test: p-nitrophenol release at […] nm
Format: biochemical
Conditions: read-out: Residual Activity (%)

SMILES: O=C(O)[C@H](O)[C@@H](O)[C@H](O)[C@H](O)CO [D-gluconic acid]
- remaining activity at 1000 µM: 13.2 ± 0.69%
